Assay results published in patent US12280088B2, “Dry powder formulation of caveolin-1 peptides and methods of use thereof” (BOARD OF REGENTS, THE UNIVERSITY OF TEXAS SYSTEM, priority 2018, dated 2025).
≈ marks a conversion by molar mass, not a printed value. One block for each molecule: values may come before it. Peptide text beside a SMILES is read from it.

What was measured:
[1] = Stability study of milled CSP7 (ammonium counterion): aerodynamic particle size distribution by NGI; format: physicochemical; conditions: Lot#UTA181028; Unprocessed
Experimental: Determination of aerodynamic particle size distribution of milled CSP7 bulk powder. Around 3.5 mg of milled CSP7 powder was manually filled into size 3 HPMC capsules (Capsugel, Peapack, N.J.). CSP7 capsules were then aerosolized using a RS01 Monodose Dry Powder Inhaler (high resistance) and aerodynamic particle size distribution was measured by a Next Generation Impactor (NGI, MSP Corp., Shoreview, Minn.). Aerosols were produced over 4 s at an air flow rate of 60 L/min for the inhaler to achieve an inhalation volume of 4 L and 4 kPa pressure drop across the device. Before each run, NGI collection surfaces were coated with 5% (v/v) polysorbate 20 in methanol. One capsule was shot for each run and each sample was ran in triplicate repetitions (three capsules). After aerosolization, all collection surfaces were rinsed with specific volumes of 20 mM Tris buffer (pH 10.3) to collect the drug. Powders deposited in the capsule, device, adaptor, throat, pre-separator, and stages 1-MOC were extracted respectively.
For each test, delivered dose is defined as the mass of CSP7 that entered the NGI. Geometric standard deviation (GSD), mass median aerodynamic diameter (MMAD) and fine particle fraction % (FPF %) are calculated and analyzed with Copley Inhaler Testing Data Analysis Software (CITDAS, Copley Scientific, Nottingham UK), based on the doses deposited on stages 1-MOC of NGI. The FPF is defined as the mass fraction of particles less than 5.0 μm with the delivered dose.
(§1) Stability study for milled CSP7 (ammonium counterion) from Lot #UTA181028. The stability of milled CSP7 powder was investigated under different storage conditions for a period of up to 6 months. Milled CSP7 peptide is packaged as two forms, bulk milled powder and encapsulated milled powder. For storage as bulk milled powder, 0.21-0.24 g peptide is filled in 20 mL scintillation vials (Kimble®, DWK Life Sciences, Millville, N.J., US) and stored within a heat-sealed foil pouch (Impak Corp, Los Angeles, Calif., US) containing two bags of 1 g silica gel desiccant (Tyvek®, Sorbco Packaging LLC, Belen, N. Mex., US) in each pouch. Milled peptide powder is also encapsulated in size 3 HPMC capsules (Capsugel, Morristown, N.J., US) in a weight of about 11±5% mg, and 22-26 capsules are then packaged in HDPE bottles (Drug Plastic, Boyertown, Pa., US), followed by sealing the HDPE bottle within a foil pouch (without desiccant). Packages are stored in stability chambers at the following storage conditions: −20° C., 25° C./60% RH, and 40° C./75% RH. Samples are removed for testing at 1, 3, and 6 months (Table 38). For tests except the aerodynamic particle size distribution, encapsulated powder was removed from the capsule and mixed in a glass vial by rotating the vial.
Aerodynamic particle size distribution: The aerodynamic particle size distribution was evaluated by performing NGI as described in Example 1, except that the powder weight in the tested capsule was 11±5% mg and pre-separator was removed in the assembly of the NGI in stability study.

[2] = Stability study of milled CSP7 (ammonium counterion): geometric particle size distribution (Sympatec HELOS, RODOS); format: physicochemical; conditions: not stored (Unprocessed / Initial)
Experimental: as §1
Geometric particle size distribution. GPSD of CSP7 powder was analyzed before and after milling using a Sympatec HELOS laser diffraction instrument (Sympatec GmbH, Germany) equipped with RODOS dispersion. Measurements are taken every 10 ms following powder dispersion at 3 bar. Measurements that are between 5 and 25% optical density were averaged to determine particle size distribution. The particle sizes by volume are reported at percentiles of 10, 50, and 90 (e.g., Dv 10, Dv 50, and Dv 90), respectively, as well as the percentages of particles falling into 1-5 μm size range. The results are shown in 41.

physchem = format: physicochemical
Experimental: Solubility of neat (i.e., not milled) CSP7 ammonium counterion form (Table 35) was performed by adding excess amount of peptide powder into 3 mL different pH buffers (Table 36) and mixing on orbital shaker at 100 rpm for 24 hours at room temperature. The solubility and freeze-thaw samples were filtered through a 0.45 μm membrane prior to being assayed by performing High Performance Liquid Chromatography (HPLC, Thermo Fisher Scientific, Fair Lawn, N.J.). Briefly, samples were analyzed using Dionex 3000 HPLC system equipped with a Waters® reversed phase C18 column 2.5 μm, 150 mm×4.60 mm. The HPLC column was heated to 60° C. for testing, and the peptide was detected at a wavelength of 215 nm and a 1 mL/min flow rate. The two mobile phases were A (0.1% acetic acid in water) and B (0.1% acetic acid in acetonitrile). The injection volume was 20 μL and the standard curve was plotted from 0.01-1 mg/ml.

[3] = test system: Bleomycin Induced Lung Fibrosis; assay: Bleomycin induced lung fibrosis in mice, Ashcroft score; format: in vivo; conditions: dry powder inhalation after bleomycin induction, vs bleomycin only
Experimental: Preparation and lysis of lung tissues. Female mice, ages 6-8 weeks are ordered from Jackson Laboratories, stock: 000664 C57BL/6J are cared for and housed according to IACUC guidelines. The following week, mice are weighed, anesthetized with an IP injection of 80 mg/kg Ketamine & 6 mg/kg Xylazine (approx. 115 ul/mouse) and subjected to a single intratracheal installation of bleomycin. Briefly, a 26G plastic catheter is inserted into the trachea and mice receive, via pipette, 2×20 ul installations (spaced 30 s apart to allow clearance from the airways) of 0.8 U/kg bleomycin (Biotang, Cat #RB003). Controls receive the same volume of saline only. Weight is tracked (approximately 10% weight loss occurs in injured animals) and animals are subjected to a dry powder inhalation protocol (CH technologies) daily for one week. […] Images were captured with Aperio AT2 high volume, digital whole slide scanner and lungs were scored for fibrotic injury according to modified Ashcroft scoring protocol (Hubner et al., 2008, incorporated herein by reference). […] The colormetric assay was read on a microplate reader (FilterMax F5, Molecular Devices, 580 nm). […]
Lung tissues were homogenized and collagen content was analyzed using the Quickzyme collagen assay (FIG. 30). […]

[4] = Geometric particle size by Sympatec laser diffraction, wet dispersion; format: physicochemical
Experimental: The particle sizes were next determined by Sympatec laser diffraction by a wet dispersion method. CSP7 was dissolved in ethanol +0.05% Tween 80 as dispersion medium and sonicated 10 min.

[5] = pH-solubility of polypeptide variants; format: physicochemical
Experimental: Solubility study of variants was performed by adding variants powders into solvent in concentration of 5 mg/ml and then vortexing for 3 min. Observe the appearance of solutions in 5 min. Add more powder (˜5 mg/ml each time) and repeat vortex and observe until precipitation or gelation occurs.

- EF % [1]: 92.8%
- FPD [1]: 4.2 mg
- FPF % [1]: 48.4%
- GSD [1]: 4.67
- MMAD [1]: 3.09 μm
- % 1-5 μm [2]: 47.0 ± 0.9%
- Dv 10 [2]: 1.2 ± 0 μm
- Dv 50 [2]: 4.5 ± 0.1 μm
- Dv 90 [2]: 15.7 ± 0.8 μm
- solubility thermodynamic at 24 h (physchem; pH 3, aqueous buffer): 170 µg/mL
- solubility thermodynamic at 24 h (physchem; pH 4, aqueous buffer): 70 µg/mL
- solubility thermodynamic at 24 h (physchem; pH 5, aqueous buffer): 50 µg/mL
- solubility thermodynamic at 24 h (physchem; pH 6, aqueous buffer): 70 µg/mL
- solubility thermodynamic at 24 h (physchem; pH 7, aqueous buffer): 100 µg/mL
- solubility thermodynamic at 24 h (physchem; pH 8, aqueous buffer): 380 µg/mL
- solubility thermodynamic at 24 h (physchem; pH 9, aqueous buffer): 2300 µg/mL
- solubility thermodynamic at 24 h (physchem; pH 10, aqueous buffer): 7870 µg/mL
- solubility thermodynamic at 24 h (physchem; pH 11, aqueous buffer): 14400 µg/mL
SMILES: CC(C)[C@H](NC(=O)[C@@H](NC(=O)[C@H](Cc1ccccc1)NC(=O)[C@@H](NC(=O)[C@@H](NC(=O)[C@@H](N)Cc1ccccc1)[C@@H](C)O)[C@@H](C)O)[C@@H](C)O)C(=O)N[C@H](C(=O)O)[C@@H](C)O [CSP7 (ammonium counterion), FTTFTVT] (H-FTTFTVT-OH; N-terminus and C-terminus assumed)

- Dv 50 [4]: 29.0±0.8 μm
- solubility thermodynamic at 3 min ([5]; pH 4.5): 150 µg/mL (≈ 184 µM)
- solubility thermodynamic at 3 min ([5]; pH 5.5): 160 µg/mL (≈ 196 µM)
- solubility thermodynamic at 3 min ([5]; pH 6.5): 160 µg/mL (≈ 196 µM)
- solubility thermodynamic at 3 min ([5]; pH 7.5): 310 µg/mL (≈ 380 µM)
- solubility thermodynamic at 3 min ([5]; pH 8.5): 1430 µg/mL (≈ 1750 µM)
SMILES: CC(C)[C@H](NC(=O)[C@@H](NC(=O)[C@H](Cc1ccccc1)NC(=O)[C@@H](NC(=O)[C@@H](NC(=O)[C@@H](N)Cc1ccccc1)[C@@H](C)O)[C@@H](C)O)[C@@H](C)O)C(=O)N[C@H](C(=O)O)[C@@H](C)O [CSP7, FTTFTVT] (H-FTTFTVT-OH; N-terminus and C-terminus assumed)
- Ashcroft score [3]: lower
